Patent US20250222120A1, “SYNTHESIS OF NOVEL SMALL MOLECULE CARM1 DEGRADERS, COMPOUNDS FORMED THEREBY, AND PHARMACEUTICAL COMPOSITIONS CONTAINING THEM” (Wisconsin Alumni Research Foundation, priority 2024, published 2025)

Assays:
PRMT1 = molecular target: T1, PRMT1 (Homo sapiens, UniProt Q99873); assay: Global proteomics of MCF7 cells, PRMT1 level; format: cell-based; conditions: 25 nM, 4 h, versus DMSO
T1 construct: we performed a global quantitative proteomic analysis of MCF7 cells using mass spectrometry; endogenous in cells; host or cells: MCF7
T1 sequence (Q99873 whole entry): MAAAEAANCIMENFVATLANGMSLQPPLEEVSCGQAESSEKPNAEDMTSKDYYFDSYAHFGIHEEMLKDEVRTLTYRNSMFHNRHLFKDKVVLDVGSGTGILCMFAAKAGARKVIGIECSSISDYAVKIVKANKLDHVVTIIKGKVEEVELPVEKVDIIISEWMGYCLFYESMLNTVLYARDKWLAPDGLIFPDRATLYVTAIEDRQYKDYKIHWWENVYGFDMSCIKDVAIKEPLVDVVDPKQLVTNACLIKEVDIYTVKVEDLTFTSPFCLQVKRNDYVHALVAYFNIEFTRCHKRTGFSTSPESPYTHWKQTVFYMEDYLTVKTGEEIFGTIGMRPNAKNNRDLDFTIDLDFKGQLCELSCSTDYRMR
Experimental: Sample preparation for global proteomics analysis. Sample preparation is similar to the previous report (Ma et al. “Strategy Based on Deglycosylation, Multiprotease, and Hydrophilic Interaction Chromatography for Large-Scale Profiling of Protein Methylation” Anal. Chem. 2017, 89 (23), 12909-12917). Briefly, treated MCF7 cells were harvested by washing with PBS buffer (Gibco, pH 7.4) and lysed in RIPA buffer supplemented with protease inhibitors for 20 min, then protein concentration was determined using a BCA Protein Assay Kit (Thermo Pierce, Rockford, IL) per manufacturer instructions. […] The concentrations of the peptide mixture were measured by peptide assay (Thermo Fisher Scientific). […]
LC-MS/MS data acquisition. Samples were analyzed on an Orbitrap Fusion Lumos Tribrid mass spectrometer (Thermo Fisher Scientific) coupled to a Dionex UltiMate 3000 UPLC system. […]
Data analysis. Protein identification and quantification by MaxQuant (version 1.5.3.8) based database searching, using the integrated Andromeda search engine with FDR <1% at peptide and protein levels. […] For label-free protein quantification (LFQ), the MaxQuant LFQ algorithm was used to quantitate the MS signals, and the proteins' intensities were represented in LFQintesnit (Schaab et al. “Analysis of High Accuracy, Quantitative Proteomics Data in the MaxQB Database” Mol. Cell. Proteomics 2012, 11 (3), M111.014068). […]

CARM1 = molecular target: T2, CARM1 (Homo sapiens, UniProt Q86X55); assay: CARM1 degradation by western blot in MCF7 cells; format: cell-based; design: Cell lysates were collected and the CARM1 levels were detected by western blots; endogenous in cells; host or cells: MCF7
T2 sequence (Q86X55 1-608): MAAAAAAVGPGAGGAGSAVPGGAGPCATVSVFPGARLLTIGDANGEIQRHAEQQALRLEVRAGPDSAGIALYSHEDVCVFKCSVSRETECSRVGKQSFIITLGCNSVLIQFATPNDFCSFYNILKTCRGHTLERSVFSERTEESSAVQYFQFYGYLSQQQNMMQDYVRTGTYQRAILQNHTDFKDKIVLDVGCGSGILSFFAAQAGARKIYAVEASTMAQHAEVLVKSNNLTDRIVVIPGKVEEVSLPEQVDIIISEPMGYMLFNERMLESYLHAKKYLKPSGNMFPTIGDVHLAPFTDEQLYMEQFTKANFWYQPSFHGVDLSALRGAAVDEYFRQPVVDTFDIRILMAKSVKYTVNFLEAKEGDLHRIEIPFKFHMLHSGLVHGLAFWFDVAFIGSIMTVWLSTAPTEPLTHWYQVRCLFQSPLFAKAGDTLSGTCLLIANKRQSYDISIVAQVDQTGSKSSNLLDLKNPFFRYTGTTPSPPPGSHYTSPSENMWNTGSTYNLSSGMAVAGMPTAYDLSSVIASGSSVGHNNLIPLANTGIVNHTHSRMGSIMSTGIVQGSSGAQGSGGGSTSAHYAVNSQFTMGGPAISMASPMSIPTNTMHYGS

With `CNCCN1CCC(c2cc(CN(C)C(=O)c3cccc(Oc4ccc(OCC(=O)N5CCC(CN6CCC(CN7CCN(CC(=O)N[C@H](C(=O)N8C[C@H](O)C[C@H]8C(=O)N[C@@H](C)c8ccc(-c9scnc9C)cc8)C(C)(C)C)CC7)CC6)CC5)cc4)c3)ccn2)CC1` [Compound 3b, (2S,4R)-1-((S)-3,3-dimethyl-2-(2-(4-((1-((1-(2-(4-(3-(methyl((2-(1-(2-(methylamino)ethyl)piperidin-4-yl)pyridin-4-yl)methyl)carbamoyl)phenoxy)phenoxy)acetyl)piperidin-4-yl)methyl)piperidin-4-yl)methyl)piperazin-1-yl)acetamido)butanoyl)-4-hydroxy-N—((S)-1-(4-(4-methylthiazol-5-yl)phenyl)ethyl)pyrrolidine-2-carboxamide] the “PRMT1 protein level in proteomics” value (PRMT1) was “not significantly changed”, the Dmax (CARM1; MCF7, read-out: Dmax of CARM1 degradation, MCF7 cells, 24 h, western blot, three independent experiments) was over 95% and the “Time after exposure at which CARM1 degradation was observed” value (CARM1; MCF7 cells, 0.5 μM, time course) was 2 h. For the same compound, the “CARM1 degradation over time course” value (CARM1; MCF7 cells, 0.5 μM, up to 48 h) was “degradation sustained and further maximized over the course of 48 h” and the “CARM1 degradation activity, rigid linker compared with 2e” value (CARM1; MCF7 cells, 0.1, 0.5, 1.0 and 10.0 μM, 24 hours, compared with 2e at 0.5 μM) was “significantly improved CARM1 degradation activity”.
